Results on 14 molecules are retold here after patent US5942527A, “Hydrazones, hydrazines, semicarbazones and thiosemicarbazones derived from pyridyl ketones as anticonvulsant drugs and excitatory amino acid antagonists” (K & K Biosciences, Inc., priority 1997, dated 1999).

In experiment [1] the test system is maximal electroshock seizures. Nature of the experiment: Maximal electroshock seizure (MES) test, rat, p.o. Type of experiment: in vivo, rat (Sprague-Dawley). The settings on record: for Class in the MES Test: Table 7, titled MES Test, Rat; for responders at 30 mg/kg: several time points over a 4 hour period, read-out: Percent Protection at 30 mg/kg, in the MES test. The text has this:
The hydrazones, hydrazines and semicarbazones derived from pyridyl ketones and the resulting orally effective anticonvulsant compositions of this invention are useful in the treatment of convulsive disorders. […] A series of hydrazones, hydrazines and semicarbazones derived from pyridyl ketones of this invention has been evaluated for anticonvulsant activity by the intraperitoneal (i.p.) and by the oral (p.o.) route using two standard seizure models in the mouse and in the rat, the maximal electroshock seizure (MES) test and the subcutaneous pentylenetetrazole (Metrazole) seizure threshold (scMet) test. […] In addition, the compounds are evaluated in a new model, the threshold tonic extension (TTE) model. […] Thus active compounds that may be missed in the MES and […] the mouse, i.p., can be detected in the TTE test. The Maximal Electroshock Seizure Test (MES): Maximal electroshock seizures are elicited with a 60 Hz alternating current of 50 mA intensity in mice and about 150 mA intensity in rats (5-7 times that necessary to elicit minimal electroshock seizures), delivered for 0.2 sec via corneal electrodes. A drop of 0.9% saline is instilled in the eye prior to application of the electrodes in order to […]. Abolition of the hind limb tonic extension component of the seizure is defined as protection and results are expressed as number of animals protected/number of animals tested. […] This species will be the subject of the complete anticonvulsant quantification test evaluation as described above, but after oral (gavage) administration of the candidate compound.

The subject of experiment [2] is maximal electroshock seizures. Nature of the experiment: Maximal electroshock seizure (MES) test, mouse, i.p. The settings on record: mouse, 30, 100 and 300 mg/kg. The format is in vivo, mouse (male Carworth Farms #1). An excerpt: The hydrazones, hydrazines and semicarbazones derived from pyridyl ketones and the resulting orally effective anticonvulsant compositions of this invention are useful in the treatment of convulsive disorders. […] A series of hydrazones, hydrazines and semicarbazones derived from pyridyl ketones of this invention has been evaluated for anticonvulsant activity by the intraperitoneal (i.p.) and by the oral (p.o.) route using two standard seizure models in the mouse and in the rat, the maximal electroshock seizure (MES) test and the subcutaneous pentylenetetrazole (Metrazole) seizure threshold (scMet) test. […] In addition, the compounds are evaluated in a new model, the threshold tonic extension (TTE) model. […] Thus active compounds that may be missed in the MES and […] the mouse, i.p., can be detected in the TTE test. Based on the screening results, the compounds are placed in one of three categories. […] Class II compounds show anticonvulsant activity at doses greater than 100 mg/kg or show activity at 100 mg/kg which is not reinforced by similar activity at 300 mg/kg. […] The Class I compounds are those which are most promising as anticonvulsants. […] In mice. i.p.: All compounds are emulsified in 0.5% methylcellulose. The solvent has been tested for anticonvulsant and toxic effects and found to introduce no significant bias into the testing of anticonvulsant activity. The compounds are administered intraperitoneally in a volume of 0.01 ml/gm to male Carworth Farms #1 mice weighing about 20 gm. All compounds are tested at least at three dose levels (30, 100 and 300 mg/kg) at 30 minutes and 4 hours after their administration. The Maximal Electroshock Seizure Test (MES): Maximal electroshock seizures are elicited with a 60 Hz alternating current of 50 mA intensity in mice and about 150 mA intensity in rats (5-7 times that necessary to elicit minimal electroshock seizures), delivered for 0.2 sec via corneal electrodes. A drop of 0.9% saline is instilled in the eye prior to application of the electrodes in order to […]. Abolition of the hind limb tonic extension component of the seizure is defined as protection and results are expressed as number of animals protected/number of animals tested. Anticonvulsant Quantification in Mice, i.p.: The ED50 values are determined in the MES, scMet and rotorod ataxia test.

Experiment [3] concerns TTE seizure. The experiment in a line: Threshold tonic extension (TTE) test, mouse, i.p. Particulars: mouse, 100 mg/kg. Type of experiment: in vivo. The text has this:
The hydrazones, hydrazines and semicarbazones derived from pyridyl ketones and the resulting orally effective anticonvulsant compositions of this invention are useful in the treatment of convulsive disorders. […] A series of hydrazones, hydrazines and semicarbazones derived from pyridyl ketones of this invention has been evaluated for anticonvulsant activity by the intraperitoneal (i.p.) and by the oral (p.o.) route using two standard seizure models in the mouse and in the rat, the maximal electroshock seizure (MES) test and the subcutaneous pentylenetetrazole (Metrazole) seizure threshold (scMet) test. […] In addition, the compounds are evaluated in a new model, the threshold tonic extension (TTE) model. […] Thus active compounds that may be missed in the MES and scMet tests in the mouse, i.p., can be detected in the TTE test.
The Threshold Tonic Extension (TTE) Test: The TTE test (Piredda et al., 1985) is a clinically nonselective, electroconvulsive seizure model that identifies compounds that raise seizure threshold as well as those that prevent seizure spread. […] The test is similar to the MES screen but uses a lower level of electrical current. The lower current makes the TTE test more sensitive but less discriminate than the MES screen. This ability makes the model attractive because it allows us to identify compounds that may be missed by our standard identification screen.
Twenty mice are pretreated intraperitoneally with 100 mg/kg of the test substance. At several time intervals (1/4, 1/2, 1, 2, and 4 hours) post treatment with the test drug, four mice at each time point are challenged with 12.5 mA of electrical current for 0.2 seconds via corneal electrodes. This produces a TTE seizure in the animals (Woodbury and Davenport, 1952).
For each time interval results are expressed as a ratio of the number of animals protected over the number tested. […] The positives may represent compounds acting by novel mechanisms.

The structures appear in SMILES notation. Counter-ions that a name gives are not always drawn.

For `CC(Nc1cccc(Cl)c1)c1cccnc1` (centres unmarked) [AAP 3-Pyridyl CH3 3-Cl, reference compound], in experiment [1], the “Class in the MES Test” value is “II (show anticonvulsant activity at doses greater than 100 mg/kg or show activity at 100 mg/kg which is not reinforced by similar activity at 300 mg/kg)”.
Take `CC(Nc1ccc(Cl)cc1)c1cccnc1` (centres unmarked) [AAP 3-Pyridyl CH3 4-Cl, reference compound]: in experiment [1] (rat, 50 mg/kg, Table 7), the “protection at 50 mg/kg, MES Test” value was 0-75%.
As to `CC(Nc1ccc(Cl)c(Cl)c1)c1ccncc1` (centres unmarked) [AAP 4-Pyridyl CH3 3,4-diCl, reference compound], the ED50 in experiment [1] (po, rat, Table 7, read-out: Anticonvulsant Efficacy (ED50, mg/kg) in the MES Test) was determined as 29.7 mg/kg.
`Clc1ccc(NC(c2ccccc2)c2ccncc2)cc1` (centres unmarked) [AAP 4-Pyridyl Ph 4-Cl, reference compound]: the “Class in the MES Test” value in experiment [1] is “III (Those failing to demonstrate anticonvulsant activity at doses up to 300 mg/kg are considered inactive)”.
For `CC(=NNc1ccc(Cl)cc1)c1ccncc1` [Compound 2, Methyl 4-pyridyl ketone 4-chlorophenyl hydrazone], the “ASP Group Classification, MES Test” value in experiment [2] was “I (They demonstrate anticonvulsant activity in either the MES test or the scMet test, or both at doses of 100 mg/kg or 30 mg/kg without signs of neurological deficit and thus have an estimated protective index of greater than 1)”. In experiment [1] (po, rat), the responders at 30 mg/kg lay within 50 to 75%.
For `CC(=NNc1cccc(Cl)c1)c1cccnc1` [Compound 6, Methyl 3-pyridyl ketone 3-chlorophenylhydrazone], the “ASP Group Classification, MES Test” value in experiment [2] was “I (They demonstrate anticonvulsant activity in either the MES test or the scMet test, or both at doses of 100 mg/kg or 30 mg/kg without signs of neurological deficit and thus have an estimated protective index of greater than 1)”. The “Class in the MES Test” value in experiment [1] is “I (They demonstrate anticonvulsant activity in either the MES test or the scMet test, or both at doses of 100 mg/kg or 30 mg/kg without signs of neurological deficit and thus have an estimated protective index of greater than 1)”.
As for `CCC(=NNc1ccc(Cl)c(Cl)c1)c1ccncc1` [Compound 7, Ethyl 4-pyridyl ketone 3,4-dichlorophenylhydrazone], the “ASP Group Classification, MES Test” value in experiment [2] was “III (Those failing to demonstrate anticonvulsant activity at doses up to 300 mg/kg are considered inactive)”. For the same molecule, in experiment [3], the “ASP Group Classification, TTE Test” value was “I (They demonstrate anticonvulsant activity in either the MES test or the scMet test, or both at doses of 100 mg/kg or 30 mg/kg without signs of neurological deficit and thus have an estimated protective index of greater than 1)”; the “TTE Test (Percent Protection)” value is on record as 25%.
For `CCC(=NNc1ccc(Cl)cc1)c1ccncc1` [Compound 8, Ethyl 4-pyridyl ketone 4-chlorophenylhydrazone], the “ASP Group Classification, MES Test” value in experiment [2] was “I (They demonstrate anticonvulsant activity in either the MES test or the scMet test, or both at doses of 100 mg/kg or 30 mg/kg without signs of neurological deficit and thus have an estimated protective index of greater than 1)”.
In the case of `Clc1ccc(NN=C(c2ccccc2)c2ccncc2)cc1Cl` [Compound 9, Phenyl 4-pyridyl ketone 3,4-dichlorophenylhydrazone], the “ASP Group Classification, MES Test” value in experiment [2] is “III (Those failing to demonstrate anticonvulsant activity at doses up to 300 mg/kg are considered inactive)”. In experiment [3], the “ASP Group Classification, TTE Test” value was “I (They demonstrate anticonvulsant activity in either the MES test or the scMet test, or both at doses of 100 mg/kg or 30 mg/kg without signs of neurological deficit and thus have an estimated protective index of greater than 1)”; the “TTE Test (Percent Protection)” value came to 25%.
Take `Clc1ccc(NN=C(c2ccccc2)c2ccncc2)cc1` [Compound 10, Phenyl 4-pyridyl ketone 4-chlorophenylhydrazone]: the “ASP Group Classification, MES Test” value in experiment [2] is “I (They demonstrate anticonvulsant activity in either the MES test or the scMet test, or both at doses of 100 mg/kg or 30 mg/kg without signs of neurological deficit and thus have an estimated protective index of greater than 1)”. Also, the “Class in the MES Test” value in experiment [1] was “I (They demonstrate anticonvulsant activity in either the MES test or the scMet test, or both at doses of 100 mg/kg or 30 mg/kg without signs of neurological deficit and thus have an estimated protective index of greater than 1)”.
Regarding `Clc1cccc(NN=C(c2ccccc2)c2ccncc2)c1` [Compound 11, Phenyl 4-pyridyl ketone 3-chlorophenylhydrazone], in experiment [2], the “ASP Group Classification, MES Test” value is “III (Those failing to demonstrate anticonvulsant activity at doses up to 300 mg/kg are considered inactive)”. For the same molecule, the “ASP Group Classification, TTE Test” value in experiment [3] is “I (They demonstrate anticonvulsant activity in either the MES test or the scMet test, or both at doses of 100 mg/kg or 30 mg/kg without signs of neurological deficit and thus have an estimated protective index of greater than 1)”.
With `CC(NNc1ccc(Cl)c(Cl)c1)c1cccnc1` (centres unmarked) [Compound 12, 1-(3,4-dichlorophenyl)-2-[1-(3-pyridyl)]ethylhydrazine dihydrochloride], the “ASP Group Classification, MES Test” value in experiment [2] was “I (They demonstrate anticonvulsant activity in either the MES test or the scMet test, or both at doses of 100 mg/kg or 30 mg/kg without signs of neurological deficit and thus have an estimated protective index of greater than 1)”. Moreover, in experiment [1] (po, rat), the responders at 30 mg/kg was 25 to 75%.
In the case of `CC(=NNC(N)=O)c1ccncc1` [Compound 13, Methyl 4-pyridyl ketone semicarbazone], the “ASP Group Classification, MES Test” value in experiment [2] is “I (They demonstrate anticonvulsant activity in either the MES test or the scMet test, or both at doses of 100 mg/kg or 30 mg/kg without signs of neurological deficit and thus have an estimated protective index of greater than 1)”.
Take `CC(=NNC(N)=O)c1cccnc1` [Compound 14, Methyl 3-pyridyl ketone semicarbazone]: the “ASP Group Classification, MES Test” value in experiment [2] is on record as “II (show anticonvulsant activity at doses greater than 100 mg/kg or show activity at 100 mg/kg which is not reinforced by similar activity at 300 mg/kg)”.
